Laboratory results: the supplement of paper PMC4862054

Experiments:
Details in all cases: incubation time: 72 h
CAL-85-1 [1] = experiment: normalised response (% of control), CellTox Green; higher = less cell death (100 = DMSO, 0 = benzethonium chloride kill control)
Summary of the method: (§1)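 Plates were normalised with 0.1 % DMSO as 100 and a positive kill control as 0. Breast cancer cell lines in 20 µl suspension had been seeded into 384-well plates with compound at 5 concentrations in 10-fold steps over a compound-specific 10,000-fold range, incubated 72 h, and read for CellTox Green fluorescence (485/520 nm) followed by CellTiter-Glo luminescence. Each value is the normalised signal at a single concentration.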

CAL-51 [2] = experiment: as above
Summary of the method: as §1

BT-549 [3] = experiment: as above
Summary of the method: as §1

HCC1143 [4] = experiment: as above
Summary of the method: as §1

HCC1937 [5] = experiment: as above
Summary of the method: as §1

MDA-MB-453 [6] = experiment: as above
Summary of the method: as §1

HCC1599 [7] = experiment: as above
Summary of the method: as §1

MCF-10A [8] = experiment: as above
Summary of the method: as §1

MDA-MB-468 [9] = experiment: as above
Summary of the method: as §1

Hs578T [10] = experiment: as above
Summary of the method: as §1

BT-474 [11] = experiment: as above
Summary of the method: as §1

MDA-MB-436 [12] = experiment: as above
Summary of the method: as §1

CAL-120 [13] = experiment: as above
Summary of the method: as §1

CAL-148 [14] = experiment: as above
Summary of the method: as §1

DU-4475 [15] = experiment: as above
Summary of the method: as §1

MDA-MB-231 [16] = experiment: as above
Summary of the method: as §1

CAL-85-1 [17] = experiment: normalised response (% of control), CellTiter-Glo; higher = more viable cells (100 = DMSO, 0 = benzethonium chloride kill control)
Summary of the method: as §1

CAL-51 [18] = experiment: as above
Summary of the method: as §1

HDQ-P1 [19] = experiment: as above
Summary of the method: as §1

BT-549 [20] = experiment: as above
Summary of the method: as §1

HCC1143 [21] = experiment: as above
Summary of the method: as §1

HCC1937 [22] = experiment: as above
Summary of the method: as §1

MDA-MB-453 [23] = experiment: as above
Summary of the method: as §1

HCC1599 [24] = experiment: as above
Summary of the method: as §1

MCF-10A [25] = experiment: as above
Summary of the method: as §1

MDA-MB-468 [26] = experiment: as above
Summary of the method: as §1

Hs578T [27] = experiment: as above
Summary of the method: as §1

BT-474 [28] = experiment: as above
Summary of the method: as §1

MDA-MB-436 [29] = experiment: as above
Summary of the method: as §1

SK-BR-3 = experiment: as above
Summary of the method: as §1

CAL-120 [30] = experiment: as above
Summary of the method: as §1

CAL-148 [31] = experiment: as above
Summary of the method: as §1

MFM-223 [32] = experiment: as above
Summary of the method: as §1

DU-4475 [33] = experiment: as above
Summary of the method: as §1

MDA-MB-231 [34] = experiment: as above
Summary of the method: as §1

HDQ-P1 [35] = experiment: normalised response (% of control), CellTox Green; higher = less cell death (100 = DMSO, 0 = benzethonium chloride kill control)
Summary of the method: as §1

MFM-223 [36] = experiment: as above
Summary of the method: as §1

SMILES | normalised response (CAL-85-1 [1]) [%] | normalised response (CAL-51 [2]) [%] | normalised response (BT-549 [3]) [%] | normalised response (HCC1143 [4]) [%] | normalised response (HCC1937 [5]) [%] | normalised response (MDA-MB-453 [6]) [%] | normalised response (HCC1599 [7]) [%] | normalised response (MCF-10A [8]) [%] | normalised response (MDA-MB-468 [9]) [%] | normalised response (Hs578T [10]) [%] | normalised response (BT-474 [11]) [%] | normalised response (MDA-MB-436 [12]) [%] | normalised response (CAL-120 [13]) [%] | normalised response (CAL-148 [14]) [%] | normalised response (DU-4475 [15]) [%] | normalised response (MDA-MB-231 [16]) [%] | normalised response (CAL-85-1 [17]) [%] | normalised response (CAL-51 [18]) [%] | normalised response (HDQ-P1 [19]) [%] | normalised response (BT-549 [20]) [%] | normalised response (HCC1143 [21]) [%] | normalised response (HCC1937 [22]) [%] | normalised response (MDA-MB-453 [23]) [%] | normalised response (HCC1599 [24]) [%] | normalised response (MCF-10A [25]) [%] | normalised response (MDA-MB-468 [26]) [%] | normalised response (Hs578T [27]) [%] | normalised response (BT-474 [28]) [%] | normalised response (MDA-MB-436 [29]) [%] | normalised response (SK-BR-3) [%] | normalised response (CAL-120 [30]) [%] | normalised response (CAL-148 [31]) [%] | normalised response (MFM-223 [32]) [%] | normalised response (DU-4475 [33]) [%] | normalised response (MDA-MB-231 [34]) [%] | normalised response (HDQ-P1 [35]) [%] | normalised response (MFM-223 [36]) [%]
CN(c1ccccc1CNc1nc(Nc2ccc3c(c2)CC(=O)N3)ncc1C(F)(F)F)S(C)(=O)=O (1000 nM) | 99.4 | 15.1 | 116 | 71.2 | 111 | 106 | 97.1 | 101 | 150 | 65.3 | 101 | 104 | 99.7 | 96.8 | 97.4 | 83.4 | 87.2 | 53.6 | 84.5 | 93.5 | 87.8 | 94.5 | 128 | 107 | 63.5 | 69 | 89.1 | 73.2 | 101 | 79.7 | 81 | 91.1 | 92.3 | 84.8 | 76.4 | – | –
Nc1nccc(-c2c(-c3ccc(F)cc3)ncn2C2CCCCC2)n1 (1000 nM) | 104 | 86.2 | 109 | 120 | 91.5 | 107 | 100 | 109 | 67.2 | – | 102 | 81.5 | 107 | 98.4 | 107 | 84 | 96.7 | 97 | 106 | 101 | 101 | 97.3 | 96.6 | 104 | 103 | 68.9 | 104 | 98.9 | 103 | 95.4 | 108 | 97.5 | 105 | 103 | 98.7 | 103 | –
CS(=O)(=O)CCNCc1ccc(-c2ccc3ncnc(Nc4ccc(OCc5cccc(F)c5)c(Cl)c4)c3c2)o1 [Lapatinib] (100 nM) | 96.8 | 101 | 126 | – | 118 | 92.5 | 105 | 109 | 116 | – | 96 | 91.4 | 96.9 | 77.7 | 98.3 | 115 | 96.1 | 90.5 | 83.9 | 104 | 103 | 94.6 | 92.2 | 97.2 | 79.1 | 102 | 115 | 99.9 | 103 | 50.2 | 102 | 98.3 | 104 | 99.1 | 108 | 92.8 | 101
COC(=O)C[C@](O)(CCCC(C)(C)O)C(=O)O[C@@H]1C(OC)=C[C@]23CCCN2CCc2cc4c(cc2[C@H]13)OCO4 [Omacetaxine] (1000 nM) | 4.24 | 111 | 52.6 | 108 | 24.1 | 115 | 85.7 | 33.5 | 67.1 | 60.2 | 93.7 | 104 | 91.4 | 93.1 | 97.7 | 66.4 | 0.88 | 10.1 | 23.1 | 7.92 | 14.5 | 25.8 | 48.8 | 8.63 | 11.3 | 4.18 | 2 | 26.4 | 17.2 | 12.6 | 26.9 | 32 | 14.4 | 25 | 9.47 | 74.8 | 36
Cc1cc(C(C)Nc2ccccc2)c2nc(N3CCOCC3)cc(=O)n2c1 (stereo not given) [TGX-221] (1000 nM) | 106 | 105 | 92.6 | 90.6 | 102 | 105 | 101 | 105 | 113 | 97.5 | 95.7 | 90.5 | 99.8 | 90.8 | 96.2 | 110 | 91.7 | 102 | 88 | 88.8 | 89.4 | 86.9 | 97.2 | 106 | 93.8 | 77.8 | 93.7 | 83.3 | 89.4 | 91.7 | 94.8 | 98.1 | 95 | 95.7 | 89.7 | 103 | 80.3
COc1cc(Nc2ncc(F)c(Nc3ccc4c(n3)NC(=O)C(C)(C)O4)n2)cc(OC)c1OC [Tamatinib] (1000 nM) | 103 | 89.9 | 90.7 | 119 | – | 103 | 103 | 105 | – | 108 | 99.7 | 94.2 | 105 | 102 | 100 | 107 | 95.1 | 92.1 | 98.4 | 77.5 | 104 | 102 | 105 | 106 | 104 | 88.7 | 101 | 96.6 | 104 | 104 | 97.2 | 95.6 | 104 | 103 | 101 | 105 | 103
C[C@@H]1CCN(C(=O)CC#N)C[C@@H]1N(C)c1ncnc2[nH]ccc12 [Tofacitinib] (500 nM) | 102 | 103 | 129 | 98 | 132 | 101 | 112 | 64.1 | 137 | 115 | 104 | 82.4 | 102 | 108 | 101 | 116 | 106 | 75.8 | 104 | 98.4 | 99.6 | 100 | 94.5 | 138 | 97.5 | 104 | 99.8 | 107 | 104 | 107 | 98.6 | 109 | 108 | 103 | 107 | 102 | 103
CCCC(CCC)C(=O)O [Valproic acid] (100000 nM) | 107 | 53.4 | 95.3 | 110 | 86.4 | 111 | 101 | 53 | 123 | 63.5 | 98.1 | 109 | 107 | 85.4 | 105 | 102 | 101 | 83.5 | 101 | 103 | 101 | 103 | 91.1 | 94.1 | 101 | 97.8 | 104 | 98.6 | 101 | 101 | 96.1 | 91.4 | 99.2 | 94 | 98.7 | 75.3 | 99.4
FC(F)c1nc2ccccc2n1-c1nc(N2CCOCC2)nc(N2CCOCC2)n1 [ZSTK474] (1000 nM) | 101 | 92.8 | 95.5 | 77.2 | 101 | 103 | 96.3 | 57.7 | 79.9 | 104 | 90.7 | 85.9 | 107 | 89.5 | 102 | 90.3 | 49.8 | 49.7 | 51.9 | 42.4 | 73.5 | 69.7 | 40.4 | 79.1 | 47.5 | 58.3 | 45.4 | 70.3 | 56.8 | 35.2 | 65.4 | 69.2 | 55.8 | 87.9 | 61.6 | 49.5 | 71
